The record followed here is patent US7727511B2, “Agents for imaging soluble a-beta” (priority 2003, dated 2010).

Several values for one entry are separate records, joined by “and”; a condition that tells them apart may be missing. Identical values can stand only once.

The target of assay [1] is T1, beta-amyloid 1-42 oligomer (20% biotin) (Homo sapiens, UniProt P05067).
T1 construct: 12 μg beta-amyloid 1-42 oligomer (20% biotin); purchased Bachem H-5642; host or cells: synthetic peptide
Description: SPA competition binding assay against 3H-49b on soluble oligomers. The settings on record: 50 uM unlabeled competitor, 130 nM 3H-49b. On the procedure:
Lyophilized Streptavidin-Ysi beads (GE Healthcare) were reconstituted to 100 mg/mL in deioniozed water, and then further diluted in deionized water to give a suspension containing 0.25 mg/10 μl water. Unlabeled 49b and other benzofuran probes were dissolved in DMSO to give a final stock concentration of 15 mM.
For the saturation-binding assay, isotopic dilution of radiolabeled 49b with unlabeled 49b was performed. ^3H-49b was added to 500 uM of unlabeled 49b to a final concentration of 50 μCi/mL ^3H-49b. The probe solution was then serially diluted in PBS to give six solutions giving 6.6, 13.1, 26.3, 52.5, 105, or 210 uM in the final assay well. Each concentration of the probe solution was incubated with 12 μg beta-amyloid 1-42 oligomer (20% biotin) or 1-40 (20% biotin) fibrils in a total volume of 90 μl. Assays were incubated at room temp for 2 hrs before addition of 10 μL YSi-streptavidin (0.25 mg) SPA bead. Assays were set-up in triplicate in 96-well NBS plates (Costar). Assays were incubated overnight and counted the following morning. […] The specific activities of the four probes were different, however the level of activity was the same at the concentrations where the probes were tested. For this assay, 130 nM of ^3H-49b, 90 nM ^3H-cimetidine, 14 nM ^3H-caffeine, and 6 nM ^3H-AZT were tested for direct binding to 12 ug of beta-amyloid-42 oligomer (20% biotin). Assay conditions were the same as described in saturation binding assay. […]
Data analyses were performed using Sigma Plot or GraphPad Prism® version 4. Curves were fitted using non-linear regression. KD values and IC50 values were estimated from the binding curves.
For the competition binding assay between tritium-labeled 49b and various unlabeled benzofuran analogs, assays contained 130 nM ^3H-49b and 50 uM of each of the unlabeled benzofuran analogs. As controls, 10 uM and 50 uM of unlabeled 49b were included in the assays.

The target of the next assay is T2, soluble A-beta (1-42) (Homo sapiens, UniProt P05067).
T2 construct: 1 mg of human beta-amyloid 1-42 (H-5642, Bachem); purchased Bachem H-5642; host or cells: synthetic peptide
Description: Fluorescence titration assay, soluble A-beta. In kind it is binding. The settings on record: for Kd: read-out: KD of compound to soluble A-beta (1-42). On the procedure:
A. 1 mg of human beta-amyloid 1-42 (H-5642, Bachem) and 500 uL of 1,1,1,3,3,3 hexafluoro-2-propanol (HFIP) (Aldrich) were chilled in separate bottles on ice for 30 mins. Cold beta-amyloid 1-42 was solubilized with cold HFIP. The mixture was incubated for 1 hr at room temperature until it turned clear. The resulting solution was then dried to a film under vacuum. The film was dissolved again in cold HFIP and incubated another 1 hr at room temperature. The resulting solution was separated into aliquots in several microcentrifuge tubes. HFIP was removed under vacuum, and the films were stored at −20° C. until use. To prepare soluble oligomer, the film was dissolved in appropriate amount of dry DMSO (Sigma), and Ham's F12 media (Biosource) or PBS (Sigma, D8537) was added and incubated at 4° C. for 24 hours (final concentration of 200 uM or 0.9 mg/mL beta-amyloid in 2% DMSO). The tube containing the soluble oligomers was centrifuged at 13,000 rpm for 5 mins, and its supernatant was transferred to a clean tube.
(§1) Fresh solutions of 2-4 mM probe in methanol were appropriately diluted with PBS (pH 7.4) to obtain assay solutions with final concentration range of 0.1 nM to 100 μM probe in 300-400 μL PBS (pH 7.4, 2% methanol) with 10 μM A-beta (1-40) fibrils or 6.6 μM soluble A-beta (1-42). A duplicate series of assay solutions were aliquoted with the volume of soluble A-beta or fibrils replaced by PBS. The set of solutions with probe and soluble/fibrillar A-beta and the duplicate set without A-beta were prepared and the fluorescence spectra measured in triplicate. Spectral changes in the probe's fluorescence emission spectra that were unique to the presence of A-beta indicated specific binding interactions between the probe and A-beta species. This unique spectral change allowed for the determination of the probe's binding affinity. Fluorescence emission spectra for binding affinity determinations are measured with fluorometric instrumentation known to those skilled in the art, including at least a spectrofluorometer and spectrograph. Equilibrium dissociation constants were calculated using a one-site saturation model of binding.

The next assay concerns the target T3, A-beta (1-40) fibrils (Homo sapiens, UniProt P05067).
T3 construct: Lyophilized human beta-amyloid 1-40 peptide (Catalog number H-1194, Bachem); purchased Bachem H-1194; host or cells: synthetic peptide
Description: Fluorescence titration assay, fibrils. The format is binding. The conditions noted are these: for binding to A-beta (1-40) fibrils: fluorescence binding assays, stated in words; for Kd: read-out: KD of compound to insoluble A-beta (1-40) fibrils. On the procedure: B. Insoluble A-beta (1-40) fibril formation: Lyophilized human beta-amyloid 1-40 peptide (Catalog number H-1194, Bachem) was solubilized with HFIP to produce a dry clear film following the process described above for beta-amyloid 1-42. The clear film of beta-amyloid 1-40 was diluted with distilled water to achieve a 6 mg/mL concentration. […] The clear solution was diluted to 1 mg/mL with PBS, pH 7.4 to obtain a final concentration of 1 mg/mL beta-amyloid 1-40, and then incubated at 37° C. on an orbital shaker at 200 RPM for 4 days. A cloudy solution was produced, and the fibril production was confirmed by measuring changes in fluorescence of Thioflavin T, as well as by atomic force microscopy and transmission electron microscopy. Fibrils were used immediately after their production was confirmed.
as §1

For assay [2], the target named is T1, beta-amyloid 1-42 oligomer (20% biotin). Description: Scintillation proximity assay (SPA), direct/saturation binding of tritium labeled probe to soluble oligomers. The settings on record: 90 nM 3H-cimetidine, 14 nM 3H-caffeine, 6 nM 3H-AZT; 12 ug oligomer.
Description: For SPA and atomic force microscopy (AFM) experiments, preparations of soluble oligomers and fibrils contained 20% biotinylated beta-amyloid 1-42 and 1-40, respectively (H-5642, H-5914, Bachem).
For the saturation-binding assay, isotopic dilution of radiolabeled 49b with unlabeled 49b was performed. ^3H-49b was added to 500 uM of unlabeled 49b to a final concentration of 50 μCi/mL ^3H-49b. The probe solution was then serially diluted in PBS to give six solutions giving 6.6, 13.1, 26.3, 52.5, 105, or 210 uM in the final assay well. Each concentration of the probe solution was incubated with 12 μg beta-amyloid 1-42 oligomer (20% biotin) or 1-40 (20% biotin) fibrils in a total volume of 90 μl. Assays were incubated at room temp for 2 hrs before addition of 10 μL YSi-streptavidin (0.25 mg) SPA bead. Assays were set-up in triplicate in 96-well NBS plates (Costar). Assays were incubated overnight and counted the following morning. […] Assay conditions were the same as described in saturation binding assay.
A direct binding assay using tritium labeled 49b was performed against oligomers or fibrils by scintillation proximity assay (SPA). Beta-amyloid containing 20% biotin and tritiated 49b were incubated in solution for two hours prior to addition of the Ysi-Streptavidin beads.
In assay [3] the test system is beta-amyloid in PDAPP mouse brain sections. Description: Histochemical staining on PDAPP transgenic mouse brain sections. In kind it is binding. The conditions noted are these: 24-month old PDAPP, carbonate extraction buffer to remove soluble material. Here is the method:
3-month old and 24-month old PDAPP mouse brains were obtained from Eli Lilly (Indianapolis, Ind.). Fresh frozen 30 micron sections of the brains were fixed in 10% formalin. For 49b, or Thioflavin S staining, 1 mM stock solutions of 49b and Thioflavin S were prepared in 50% ethanol. The probes were diluted to 25 μM in 50% ethanol, and then applied onto the PDAPP brain sections. The slides were incubated in a humid chamber at room temperature for 1 hr. The slides were washed three times with PBS and mounting medium (Molecular Probes) was added. The slides were incubated at least 4-6 hours before imaging. For the carbonate pre-treatment of the brain sections, formalin-fixed sections were incubated with 100 μL of carbonate buffer containing 0.025 M sodium chloride and 0.1 M sodium carbonate for 45 mins at 37° C. The slides were washed three times with PBS, then 49b or Thioflavin S were applied on the slides as described above. Microscopic examination and imaging was performed using a Leica wide-field fluorescence microscope using filter cube A for 49b and cube E4 for Thioflavin S. Co-staining of the probes with 6E10 anti-beta-amyloid antibody in the PDAPP brain sections was described in the ex vivo assay using naïve rats.

[4] abbreviates: 6.6 μM soluble A-beta (1-42), PBS pH 7.4, 2% methanol.
Setting [5] is: 10 μM A-beta (1-40) fibrils, PBS pH 7.4, 2% methanol.

T1 sequence (P05067 672-713 limits assumed): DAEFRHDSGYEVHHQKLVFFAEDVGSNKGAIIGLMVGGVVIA
T2 sequence (P05067 672-713 limits assumed): as above
T3 sequence (P05067 672-711 limits assumed): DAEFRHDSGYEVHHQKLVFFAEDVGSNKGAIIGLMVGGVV
beta-amyloid in PDAPP mouse brain sections, sequence (P05067 672-711 limits assumed): as above

As for `CC(=O)OCc1c(-c2ccc(CN3CCN(c4ccc(C(F)(F)F)cc4)CC3)o2)oc2ccccc12` [Compound 13c], 50 µM produced 60% inhibition in assay [1].

`Cc1cc(-c2oc3ccccc3c2C(=O)c2ccccc2)ccc1F` [Compound 38b]: the “KD of compound to soluble A-beta (1-42)” value on soluble A-beta (1-42) (setting [4]) is “Nonspecific binding”. Moreover, the “binding to soluble A-beta (1-42)” value at soluble A-beta (1-42) (fluorescence binding assays, stated in words) is recorded as “neither binds”. For the same molecule, the “KD of compound to insoluble A-beta (1-40) fibrils” value at A-beta (1-40) fibrils (setting [5]) was “Nonspecific binding”. Further, the “binding to A-beta (1-40) fibrils” value on A-beta (1-40) fibrils is reported as “neither binds”. Take `CC(=O)OCc1c(-c2ccc(CN3CCN(c4ccc(C)cc4)CC3)o2)oc2ccccc12` [Compound 14c]: in assay [1], at 50 µM the inhibition was 60%. Still for that read-out and setting: next, `COC(=O)[C@H](C(C)C)n1cnc(-c2ccccc2)c1-c1ccc(-c2oc3ccccc3c2CO)o1` [Compound 2c]: 30%; `OCc1c(-c2ccc(C(O)CCC3OCCCO3)o2)oc2ccccc12` (stereo not shown) [Compound 15c]: 68%.

For `N#Cc1ccc(C(O)c2ccc(-c3oc4ccccc4c3CO)o2)cc1` (stereo not shown) [Compound 6c], the inhibition at 50 µM in assay [1] was 51%. Regarding `CN/C(=N/CCSCc1nc[nH]c1C)NC#N` [cimetidine, reference compound], in assay [2], the “direct binding of tritium labeled probe to soluble oligomers” value was “did not bind”. `OCc1c(-c2ccc(-c3c(-c4ccccc4)ncn3CCF)o2)oc2ccccc12` [Compound 5c] showed an inhibition at 50 µM in assay [1] of 48%. On the same count and under the same terms, the value for `COc1ccc(N2CCN(Cc3ccc(-c4oc5ccccc5c4COC(C)=O)o3)CC2)cc1` [Compound 3c] was 38%. Take `Cc1cc(-c2oc3ccccc3c2C)ccc1F` [Compound 39b]: the Kd on soluble A-beta (1-42) (setting [4]) was more than 100000 nM; at A-beta (1-40) fibrils (setting [5]), 1680 nM. Moreover, on A-beta (1-40) fibrils, the “binding to A-beta (1-40) fibrils” value was “specifically binds”. In assay [1], `CCOC(=O)c1ccc(C(O)c2ccc(-c3oc4ccccc4c3COC(C)=O)o2)o1` (stereo not shown) [Compound 12c] displayed an inhibition at 50 µM of 59%. The same measure, in the same setting: next, `CC(=O)OCc1c(-c2ccc(C(O)c3ccc(F)c(Cl)c3)o2)oc2ccccc12` (stereo not shown) [Compound 8c]: 51%. For the molecule `COc1cc(-c2oc3ccccc3c2CO)cc(OC)c1OC` [Compound 37b], the Kd at soluble A-beta (1-42) (setting [4]) was 22 nM and 22.8 nM; on A-beta (1-40) fibrils (setting [5]), more than 100000 nM. Moreover, the “increase in fluorescence intensity (and quantum yield) with soluble A-beta” value on soluble A-beta (1-42) (relative to compound in 2% methanol in PBS) is reported as “approximately 5 times”. Moreover, the “binding to A-beta (1-40) fibrils” value at A-beta (1-40) fibrils is recorded as “minimal specific binding”.

The molecule `CC(=O)OCc1c(-c2ccc(CN3CCN(c4ccc(Cl)cc4)CC3)o2)oc2ccccc12` [Compound 9c] showed an inhibition at 50 µM in assay [1] of 55%. In turn, `COCCN1CCN(Cc2ccc(-c3oc4ccccc4c3COC(C)=O)o2)CC1` [Compound 4c] came in with an inhibition at 50 µM in assay [1] of 41%. On the same count and under the same terms, the value for `CCOC(=O)c1ccc(C(O)c2ccc(-c3oc4ccccc4c3CO)o2)o1` (stereo not shown) [Compound 10c] was 57%. For the molecule Thioflavin S [reference compound], the “staining of carbonate pre-treated brain sections” value in assay [3] is recorded as “staining remained”. For `OCc1c(-c2ccc(-c3cncn3CCF)o2)oc2ccccc12` [Compound 11c], the inhibition at 50 µM in assay [1] stood at 58%. Consider `CC(=O)OCc1c(-c2ccc(C=O)o2)oc2ccccc12` [Compound 7c], for which the inhibition at 50 µM in assay [1] came to 51%. On the same count and under the same terms, next, `CC(=O)OCc1c(-c2ccc(CN3CCN(c4ccc(C#N)cc4)CC3)o2)oc2ccccc12` [Compound 1c]: 24%.

By inhibition is commonly meant the drop in the measured response relative to a control, in per cent. Low readings indicate little suppression, high ones strong suppression. Broadly, the Kd is the constant that tells how readily two partners part at equilibrium.
